From publication PMC2396520, “Antibody Complementarity-Determining Regions (CDRs) Can Display Differential Antimicrobial, Antiviral and Antitumor Activities” (PLoS ONE, 2008)
Read-outs that look alike come from different tables or passages of the source. Where a SMILES comes first, the peptide text is derived from it.

Legend:
Assay type in all cases: cell-based
R5 HIV-1 = settings: for % inhibitory activity (10 µg/ml): R5, 2 h; for % inhibitory activity (10 µg/ml), endogenous HIV-1 replication: ex vivo, day 10 of culture, p24, mean of 3 determinations
Description: (§1) Briefly, for endogenous HIV-1 replication assays peripheral blood mononuclear cells (PBMCs) from R5 HIV-1-infected patients characterized by high viral RNA titers in plasma and cell-associated viremia were cultured in 96-well plates at 1×10^6 cells/mL in RPMI 1640 medium with 10% fetal calf serum (FCS) and 20 U/mL of rIL-2. Exogenous rIL-2 was added every 3–4 days. Cultures were treated with synthetic mAb CDRs and mAb C7/pc42 H1 asd at 10 µg/mL during the time of culture. Virus production on days 5 and 10 was assayed in the supernatants using ultrasensitive Alliance® HIV-1 p24 ELISA kit (Perkin Elmer); p24 Ag in the supernatants of untreated cultures corresponded to 100% of viral production. For exogenous infection assays, PHA-stimulated PBMCs obtained from healthy individuals were infected with BaL (R5) or IIIB (X4) HIV-1 strain at a median tissue culture infective dose (TCID50) of 500 TCID50/ml. After 2 h of adsorption, the cells were washed, suspended at 2×10^5 cells/ml in medium and cultured in 96-well cultures plates. At time zero of infection, synthetic peptides were added to the cultures at 10 µg/ml and were maintained throughout the experiment. All assays were performed in triplicate. Virus production was assayed 10 days after infection in the supernatants of HIV-1-infected PBMCs by p24 assay.

HIV-1 BaL (R5) = experiment: In vitro exogenous HIV-1 infection of PHA-stimulated PBMCs, BaL strain (p24 assay); settings: day 10, p24, mean of 3 determinations
Description: as §1

Candida albicans UP10 = settings: for Anti-Candida activity (%) at 100 µg/mL: 37°C, 6 h, triplicate; for EC50: UP10, 6 h; for EC50asd/EC50H2: anti-Candida EC50 of the derivative relative to C7/pc42 H2
Description: The alanine substituted derivatives (asd), defined according to the position held by the alanine-substituted aminoacid, were tested in the same biological assays to critically establish the functional relevance of each residue [5]. In vitro microbicidal activity of CDR peptides and selected asd against C. albicans UP 10 (clinical isolate from the fungi collection of the University of Parma) and C. albicans NCPF 3153 (National Collection of Pathogenic Fungi, Bristol, UK) were used for the in vitro experiments.
The microbicidal activity of synthetic CDRs against C. albicans strains was preliminarily evaluated by testing 100 µg/mL of each synthetic peptide by colony forming unit (CFU) assays as previously described [5]. Briefly, 10 µL of a distilled water suspension containing ∼5×10^4/mL germinating yeast cells were added to 90 µL of distilled water containing the synthetic peptide to be tested. Yeast suspensions were incubated at 37°C for 6 h. After incubation, the cell suspensions were plated on Sabouraud dextrose agar, incubated at 30°C and observed for CFU determination after 48–72 hours. Each assay was carried out in triplicate. […] EC50 was calculated by nonlinear regression analysis using Graph Pad Prism 4.01 software, San Diego, CA, USA.

HIV-1 IIIB (X4) = experiment: In vitro exogenous HIV-1 infection of PHA-stimulated PBMCs, IIIB strain (p24 assay); settings: day 10, p24, mean of 3 determinations
Description: as §1

[1] = system: B16F10-Nex2 murine melanoma cells; settings: 12 h
Description: Each peptide was tested in triplicate. After 12 h, the cytotoxic activities of the peptides were determined by measuring cell viability by Trypan Blue exclusion.

[2] = CDR peptides, 100 µg/mL in distilled water, CFU after 48–72 h, C. albicans UP10
[3] = C7/pc42 H2 alanine-substituted derivatives, 100 µg/mL, CFU assay

Compound	% inhibitory activity (10 µg/ml) (R5 HIV-1) [%]	% inhibitory activity (10 µg/ml), exogenous HIV-1 replication, BaL (HIV-1 BaL (R5)) [%]	% inhibitory activity (10 µg/ml), endogenous HIV-1 replication (R5 HIV-1) [%]	Anti-Candida activity (%) at 100 µg/mL (Candida albicans UP10; [2]) [%]	% inhibitory activity (10 µg/ml), exogenous HIV-1 replication, IIIB (HIV-1 IIIB (X4)) [%]	Anti-Candida activity (%) at 100 µg/mL (Candida albicans UP10; [3]) [%]	EC50 (Candida albicans UP10) [µM]	EC50asd/EC50H2 (Candida albicans UP10)	EC50 [1] [µM]
CSCC[C@H](NC(=O)[C@H](Cc1ccc(O)cc1)NC(=O)[C@H](Cc1ccc(O)cc1)NC(=O)CN)C(=O)N[C@@H](C)C(=O)O [H5A] (H-GYYMA-OH; N-terminus and C-terminus assumed)	0	–	–	–	–	–	–	–	–
CSCC[C@H](NC(=O)[C@H](C)NC(=O)[C@H](Cc1ccc(O)cc1)NC(=O)CN)C(=O)N[C@@H](Cc1c[nH]cn1)C(=O)O [Y3A] (H-GYAMH-OH; N-terminus and C-terminus assumed)	90	–	–	–	–	–	–	–	–
QHIRELTRSE [pc42 L3, synthetic peptide identical to light chain CDR L3 of mouse mAb pc42]	–	0	0	83.9	0	–	–	–	–
GQTTVTKIDEDY [HuA H3, synthetic peptide identical to heavy chain CDR H3 of human IgM mAb HuA]	–	0	36	19.2	0	–	–	–	–
CSCC[C@H](NC(=O)[C@H](Cc1ccc(O)cc1)NC(=O)[C@H](C)NC(=O)CN)C(=O)N[C@@H](Cc1c[nH]cn1)C(=O)O [Y2A] (H-GAYMH-OH; N-terminus and C-terminus assumed)	61	–	–	–	–	–	–	–	–
C[C@H](NC(=O)[C@H](Cc1ccc(O)cc1)NC(=O)[C@H](Cc1ccc(O)cc1)NC(=O)CN)C(=O)N[C@@H](Cc1c[nH]cn1)C(=O)O [M4A] (H-GYYAH-OH; N-terminus and C-terminus assumed)	41	–	–	–	–	–	–	–	–
DASNRAT [HuA L2, synthetic peptide identical to light chain CDR L2 of human IgM mAb HuA]	–	0	32	0	0	–	–	–	–
CSCC[C@H](NC(=O)[C@H](Cc1ccc(O)cc1)NC(=O)[C@H](Cc1ccc(O)cc1)NC(=O)[C@H](C)N)C(=O)N[C@@H](Cc1c[nH]cn1)C(=O)O [G1A] (H-AYYMH-OH; N-terminus and C-terminus assumed)	0	–	–	–	–	–	–	–	–
CC[C@H](C)[C@H](NC(=O)[C@@H](N)Cc1ccc(O)cc1)C(=O)N[C@@H](C)C(=O)N[C@@H](CS)C(=O)N[C@@H](Cc1ccc(O)cc1)C(=O)N[C@@H](CC(N)=O)C(=O)NCC(=O)N[C@@H](C)C(=O)N[C@H](C(=O)N[C@@H](CO)C(=O)N[C@@H](Cc1ccc(O)cc1)C(=O)N[C@@H](CC(N)=O)C(=O)N[C@@H](CCC(N)=O)C(=O)N[C@@H](CCCCN)C(=O)N[C@@H](Cc1ccccc1)C(=O)N[C@@H](CCCCN)C(=O)O)[C@@H](C)O [S3A] (H-YIACYNGATSYNQKFK-OH; N-terminus and C-terminus assumed)	–	–	–	–	–	100.00	3.12	0.74	64.9
SYTFH [HuA H1, synthetic peptide identical to heavy chain CDR H1 of human IgM mAb HuA]	–	84	38	12.9	0	–	–	–	–
C[C@H](NC(=O)CNC(=O)[C@H](CC(N)=O)NC(=O)[C@H](Cc1ccc(O)cc1)NC(=O)[C@H](CS)NC(=O)[C@H](CO)NC(=O)[C@H](C)NC(=O)[C@@H](N)Cc1ccc(O)cc1)C(=O)N[C@H](C(=O)N[C@@H](CO)C(=O)N[C@@H](Cc1ccc(O)cc1)C(=O)N[C@@H](CC(N)=O)C(=O)N[C@@H](CCC(N)=O)C(=O)N[C@@H](CCCCN)C(=O)N[C@@H](Cc1ccccc1)C(=O)N[C@@H](CCCCN)C(=O)O)[C@@H](C)O [I2A] (H-YASCYNGATSYNQKFK-OH; N-terminus and C-terminus assumed)	–	–	–	–	–	99.77	6.25	1.49	73.5
CC[C@H](C)[C@H](NC(=O)[C@@H](N)Cc1ccc(O)cc1)C(=O)N[C@@H](CO)C(=O)N[C@@H](CS)C(=O)N[C@@H](Cc1ccc(O)cc1)C(=O)N[C@@H](CC(N)=O)C(=O)NCC(=O)N[C@@H](C)C(=O)N[C@H](C(=O)N[C@@H](C)C(=O)N[C@@H](Cc1ccc(O)cc1)C(=O)N[C@@H](CC(N)=O)C(=O)N[C@@H](CCC(N)=O)C(=O)N[C@@H](CCCCN)C(=O)N[C@@H](Cc1ccccc1)C(=O)N[C@@H](CCCCN)C(=O)O)[C@@H](C)O [S10A] (H-YISCYNGATAYNQKFK-OH; N-terminus and C-terminus assumed)	–	–	–	–	–	100.00	13.2	3.16	119
CC[C@H](C)[C@H](NC(=O)[C@@H](N)Cc1ccc(O)cc1)C(=O)N[C@@H](CO)C(=O)N[C@@H](CS)C(=O)N[C@@H](Cc1ccc(O)cc1)C(=O)N[C@@H](CC(N)=O)C(=O)NCC(=O)N[C@@H](C)C(=O)N[C@H](C(=O)N[C@@H](CO)C(=O)N[C@@H](Cc1ccc(O)cc1)C(=O)N[C@@H](CC(N)=O)C(=O)N[C@@H](CCC(N)=O)C(=O)N[C@@H](C)C(=O)N[C@@H](Cc1ccccc1)C(=O)N[C@@H](CCCCN)C(=O)O)[C@@H](C)O [K14A] (H-YISCYNGATSYNQAFK-OH; N-terminus and C-terminus assumed)	–	–	–	–	–	91.72	18.5	4.41	384
ARQGVRGGAMD [C7 H3, synthetic peptide identical to heavy chain CDR H3 of mouse mAb C7]	–	0	0	55.5	75	–	–	–	–
CC[C@H](C)[C@H](NC(=O)[C@@H](N)Cc1ccc(O)cc1)C(=O)N[C@@H](CO)C(=O)N[C@@H](CS)C(=O)N[C@@H](Cc1ccc(O)cc1)C(=O)N[C@@H](CC(N)=O)C(=O)NCC(=O)N[C@@H](C)C(=O)N[C@H](C(=O)N[C@@H](CO)C(=O)N[C@@H](Cc1ccc(O)cc1)C(=O)N[C@@H](CC(N)=O)C(=O)N[C@@H](CCC(N)=O)C(=O)N[C@@H](CCCCN)C(=O)N[C@@H](Cc1ccccc1)C(=O)N[C@@H](C)C(=O)O)[C@@H](C)O [K16A] (H-YISCYNGATSYNQKFA-OH; N-terminus and C-terminus assumed)	–	–	–	–	–	0	161	38.35	87
CC[C@H](C)[C@H](NC(=O)[C@@H](N)Cc1ccc(O)cc1)C(=O)N[C@@H](CO)C(=O)N[C@@H](C)C(=O)N[C@@H](Cc1ccc(O)cc1)C(=O)N[C@@H](CC(N)=O)C(=O)NCC(=O)N[C@@H](C)C(=O)N[C@H](C(=O)N[C@@H](CO)C(=O)N[C@@H](Cc1ccc(O)cc1)C(=O)N[C@@H](CC(N)=O)C(=O)N[C@@H](CCC(N)=O)C(=O)N[C@@H](CCCCN)C(=O)N[C@@H](Cc1ccccc1)C(=O)N[C@@H](CCCCN)C(=O)O)[C@@H](C)O [C4A] (H-YISAYNGATSYNQKFK-OH; N-terminus and C-terminus assumed)	–	–	–	–	–	94.51	8.23	1.96	67.5
CC[C@H](C)[C@H](NC(=O)[C@@H](N)Cc1ccc(O)cc1)C(=O)N[C@@H](CO)C(=O)N[C@@H](CS)C(=O)N[C@@H](Cc1ccc(O)cc1)C(=O)N[C@@H](CC(N)=O)C(=O)N[C@@H](C)C(=O)N[C@@H](C)C(=O)N[C@H](C(=O)N[C@@H](CO)C(=O)N[C@@H](Cc1ccc(O)cc1)C(=O)N[C@@H](CC(N)=O)C(=O)N[C@@H](CCC(N)=O)C(=O)N[C@@H](CCCCN)C(=O)N[C@@H](Cc1ccccc1)C(=O)N[C@@H](CCCCN)C(=O)O)[C@@H](C)O [G7A] (H-YISCYNAATSYNQKFK-OH; N-terminus and C-terminus assumed)	–	–	–	–	–	100.00	7.31	1.74	63.2
PNPLKAM [pc42 H3, synthetic peptide identical to heavy chain CDR H3 of mouse mAb pc42]	–	11	0	25.9	0	–	–	–	–
CC[C@H](C)[C@H](NC(=O)[C@@H](N)Cc1ccc(O)cc1)C(=O)N[C@@H](CO)C(=O)N[C@@H](CS)C(=O)N[C@@H](Cc1ccc(O)cc1)C(=O)N[C@@H](CC(N)=O)C(=O)NCC(=O)N[C@@H](C)C(=O)N[C@@H](C)C(=O)N[C@@H](CO)C(=O)N[C@@H](Cc1ccc(O)cc1)C(=O)N[C@@H](CC(N)=O)C(=O)N[C@@H](CCC(N)=O)C(=O)N[C@@H](CCCCN)C(=O)N[C@@H](Cc1ccccc1)C(=O)N[C@@H](CCCCN)C(=O)O [T9A] (H-YISCYNGAASYNQKFK-OH; N-terminus and C-terminus assumed)	–	–	–	–	–	100.00	3.8	0.91	60.2
VLAYDGSYQHYADSVKG [HuA H2, synthetic peptide identical to heavy chain CDR H2 of human IgM mAb HuA]	–	74	40	0	0	–	–	–	–
